Measurements from patent US11713338B2, “Cyclic peptides multimers targeting α-4-β-7 integrin” (priority 2016, dated 2023).

What was measured:
[1] = biological target: T1, integrin α4β7 (RPMI8866 human cells adhering to MAdCAM-1) (Homo sapiens, UniProt P13612+P26010); assay: Integrin α4β7-MAdCAM cell adhesion assay (RPMI8866 cells); type: cell-based; details: RPMI8866 cells adhering to MAdCAM; read-out: RPMI8866 Adhesion α4β7/MAdCAM IC50
T1 construct: RMP18866 cells, which express integrin α4β7; host or cells: RPMI8866
T1 sequence (P13612 34-1032): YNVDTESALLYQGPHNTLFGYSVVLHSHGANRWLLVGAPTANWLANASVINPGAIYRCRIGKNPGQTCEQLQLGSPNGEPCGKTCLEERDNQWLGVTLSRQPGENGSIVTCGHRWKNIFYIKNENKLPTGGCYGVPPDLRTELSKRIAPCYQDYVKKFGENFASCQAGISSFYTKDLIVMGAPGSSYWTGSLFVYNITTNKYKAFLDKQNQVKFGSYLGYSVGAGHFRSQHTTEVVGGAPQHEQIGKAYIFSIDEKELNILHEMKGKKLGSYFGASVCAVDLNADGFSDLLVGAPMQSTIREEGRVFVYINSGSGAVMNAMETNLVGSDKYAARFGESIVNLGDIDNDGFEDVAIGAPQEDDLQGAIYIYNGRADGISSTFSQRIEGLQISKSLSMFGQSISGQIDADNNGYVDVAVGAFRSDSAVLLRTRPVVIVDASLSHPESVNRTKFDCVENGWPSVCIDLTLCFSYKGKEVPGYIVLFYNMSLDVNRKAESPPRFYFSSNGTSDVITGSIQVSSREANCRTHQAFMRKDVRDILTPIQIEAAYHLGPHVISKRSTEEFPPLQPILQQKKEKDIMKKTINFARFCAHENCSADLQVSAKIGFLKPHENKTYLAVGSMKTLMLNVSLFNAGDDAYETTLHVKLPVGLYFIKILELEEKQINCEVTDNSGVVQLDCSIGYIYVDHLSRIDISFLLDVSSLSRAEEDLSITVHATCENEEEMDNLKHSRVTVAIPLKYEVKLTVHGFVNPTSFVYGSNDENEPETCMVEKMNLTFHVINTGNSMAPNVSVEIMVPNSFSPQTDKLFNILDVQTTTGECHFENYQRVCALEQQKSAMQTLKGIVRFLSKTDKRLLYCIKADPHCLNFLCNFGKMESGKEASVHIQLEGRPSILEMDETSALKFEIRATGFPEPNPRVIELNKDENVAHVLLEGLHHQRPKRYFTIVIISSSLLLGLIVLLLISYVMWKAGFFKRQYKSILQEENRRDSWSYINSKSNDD
T1 sequence (P26010 20-798): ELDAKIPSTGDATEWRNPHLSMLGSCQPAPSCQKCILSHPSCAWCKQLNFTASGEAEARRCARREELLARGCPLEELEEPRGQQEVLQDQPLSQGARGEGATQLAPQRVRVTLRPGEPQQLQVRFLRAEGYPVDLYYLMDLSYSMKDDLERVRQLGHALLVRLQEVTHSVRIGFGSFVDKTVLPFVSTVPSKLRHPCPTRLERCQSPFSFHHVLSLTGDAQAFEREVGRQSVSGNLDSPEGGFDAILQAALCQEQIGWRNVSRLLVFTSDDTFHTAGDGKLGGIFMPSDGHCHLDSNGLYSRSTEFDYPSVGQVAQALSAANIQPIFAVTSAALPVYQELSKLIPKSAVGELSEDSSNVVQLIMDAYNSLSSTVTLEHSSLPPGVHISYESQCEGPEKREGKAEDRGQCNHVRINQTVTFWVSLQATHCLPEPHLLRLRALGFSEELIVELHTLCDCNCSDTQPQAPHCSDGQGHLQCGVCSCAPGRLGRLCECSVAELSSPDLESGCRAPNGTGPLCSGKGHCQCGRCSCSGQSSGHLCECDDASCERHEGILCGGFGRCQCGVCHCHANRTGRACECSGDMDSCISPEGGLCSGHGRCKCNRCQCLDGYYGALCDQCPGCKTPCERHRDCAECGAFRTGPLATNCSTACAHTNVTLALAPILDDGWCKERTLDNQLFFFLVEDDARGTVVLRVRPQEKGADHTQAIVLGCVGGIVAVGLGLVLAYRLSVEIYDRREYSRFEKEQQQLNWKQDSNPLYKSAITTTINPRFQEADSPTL
Protocol: Integrin α4β7-MAdCAM Cell Adhesion Assay
RPMI8866 cells were resuspended at 10 million cells/ml in PBS containing […] and incubated at 37° C. for 30 min in a 50 ml tube. […] The plate was emptied by inverting and blotting on paper towels and washed manually twice with PBS. 100 μl PBS was then added to each well. […] To calculate the dose response, the fluorescence value of control wells not containing cells was subtracted from each test well.

[2] = biological target: T2, recombinant integrin α4β7 (Homo sapiens, UniProt P13612+P26010, DEL724-798); assay: Integrin α4β7—MAdCAM-1 ELISA competition assay; type: binding; details: for ELISA Assay Ratio b1/b7: ratio of a4b1 to a4b7 ELISA IC50; for IC50: read-out: ELISA a4b7 Assay IC50
T2 construct: purchased R&D Systems 5397-A3-050
T2 sequence (P13612 34-970 limits assumed): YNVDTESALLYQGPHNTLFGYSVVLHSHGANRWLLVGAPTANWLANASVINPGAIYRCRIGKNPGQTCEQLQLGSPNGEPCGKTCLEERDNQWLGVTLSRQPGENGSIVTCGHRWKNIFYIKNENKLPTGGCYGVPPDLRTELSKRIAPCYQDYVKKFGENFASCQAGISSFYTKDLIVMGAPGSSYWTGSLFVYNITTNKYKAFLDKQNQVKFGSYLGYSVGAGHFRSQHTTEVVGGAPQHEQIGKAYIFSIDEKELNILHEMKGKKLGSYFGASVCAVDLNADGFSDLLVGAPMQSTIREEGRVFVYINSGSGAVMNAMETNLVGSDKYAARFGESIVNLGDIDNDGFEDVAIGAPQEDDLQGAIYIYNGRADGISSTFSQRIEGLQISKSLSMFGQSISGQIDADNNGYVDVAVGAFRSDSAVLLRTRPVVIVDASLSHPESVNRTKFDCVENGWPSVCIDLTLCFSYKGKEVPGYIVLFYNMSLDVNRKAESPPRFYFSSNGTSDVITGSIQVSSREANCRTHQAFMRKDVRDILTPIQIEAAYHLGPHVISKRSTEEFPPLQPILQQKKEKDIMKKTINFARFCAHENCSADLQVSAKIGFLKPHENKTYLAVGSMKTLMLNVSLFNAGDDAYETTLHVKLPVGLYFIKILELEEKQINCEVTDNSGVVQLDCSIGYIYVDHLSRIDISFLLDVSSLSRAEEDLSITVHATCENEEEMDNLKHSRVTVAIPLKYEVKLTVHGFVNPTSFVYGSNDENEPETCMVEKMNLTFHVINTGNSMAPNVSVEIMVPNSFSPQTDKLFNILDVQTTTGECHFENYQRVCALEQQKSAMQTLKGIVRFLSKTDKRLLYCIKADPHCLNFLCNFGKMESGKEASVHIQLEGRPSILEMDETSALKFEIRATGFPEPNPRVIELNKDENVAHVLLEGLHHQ
T2 sequence (P26010 20-723 limits assumed): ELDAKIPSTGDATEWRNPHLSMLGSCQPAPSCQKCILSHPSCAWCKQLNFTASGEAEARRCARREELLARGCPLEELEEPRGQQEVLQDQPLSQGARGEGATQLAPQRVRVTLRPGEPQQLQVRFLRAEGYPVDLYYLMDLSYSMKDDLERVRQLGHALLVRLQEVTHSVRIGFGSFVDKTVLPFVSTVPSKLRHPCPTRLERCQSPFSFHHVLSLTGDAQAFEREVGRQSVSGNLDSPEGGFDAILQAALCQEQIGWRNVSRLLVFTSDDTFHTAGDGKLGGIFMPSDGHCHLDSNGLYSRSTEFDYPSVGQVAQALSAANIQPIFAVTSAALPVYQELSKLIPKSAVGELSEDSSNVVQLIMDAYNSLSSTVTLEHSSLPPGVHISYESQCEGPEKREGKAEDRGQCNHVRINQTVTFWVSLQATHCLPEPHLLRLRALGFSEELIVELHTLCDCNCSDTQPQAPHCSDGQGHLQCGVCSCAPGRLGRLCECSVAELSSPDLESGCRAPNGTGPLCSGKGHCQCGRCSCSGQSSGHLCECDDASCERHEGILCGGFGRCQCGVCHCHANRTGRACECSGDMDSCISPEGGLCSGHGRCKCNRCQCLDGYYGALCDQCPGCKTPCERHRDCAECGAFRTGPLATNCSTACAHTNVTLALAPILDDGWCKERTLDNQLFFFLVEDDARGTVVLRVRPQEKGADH

[3] = biological target: T3, recombinant integrin α4β1 (Homo sapiens, UniProt P05556+P13612); assay: Integrin α4β1—VCAM-1 competition ELISA; type: binding; details: read-out: ELISA a4b1 Assay IC50
T3 construct: purchased R&D Systems 5397-A3-050
In short: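 Compound dilutions added to coated plate and shaken at room temperature for 2 h (300 rpm) to binding equilibrium. Wash buffer: 50 mM Tris, 100 mM NaCl, 1 mM MnCl2, 0.05% Tween. Bound Fc-tagged ligand detected with anti-human IgG Fc-HRP, 1 h at room temperature.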

T3 sequence (P05556 21-728 limits assumed, one chain of several): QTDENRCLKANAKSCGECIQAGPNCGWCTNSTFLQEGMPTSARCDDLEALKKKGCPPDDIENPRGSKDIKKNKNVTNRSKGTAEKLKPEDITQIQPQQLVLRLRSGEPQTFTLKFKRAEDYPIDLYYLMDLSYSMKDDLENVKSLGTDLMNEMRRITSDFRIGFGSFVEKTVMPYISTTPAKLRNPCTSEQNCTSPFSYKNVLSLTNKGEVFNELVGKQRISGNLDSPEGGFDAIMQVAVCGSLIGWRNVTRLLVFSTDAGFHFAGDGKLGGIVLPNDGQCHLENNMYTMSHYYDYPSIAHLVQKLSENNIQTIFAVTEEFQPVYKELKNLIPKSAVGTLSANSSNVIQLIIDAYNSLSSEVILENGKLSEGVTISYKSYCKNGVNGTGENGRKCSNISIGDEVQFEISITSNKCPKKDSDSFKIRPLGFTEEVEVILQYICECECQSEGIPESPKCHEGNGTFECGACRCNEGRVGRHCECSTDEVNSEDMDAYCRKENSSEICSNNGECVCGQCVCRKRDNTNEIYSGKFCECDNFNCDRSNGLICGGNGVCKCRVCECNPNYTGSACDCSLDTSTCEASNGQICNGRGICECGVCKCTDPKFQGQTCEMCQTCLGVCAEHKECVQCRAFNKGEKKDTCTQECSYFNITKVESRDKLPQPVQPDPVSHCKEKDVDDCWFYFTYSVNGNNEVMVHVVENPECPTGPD

| Structure (SMILES) | IC50 [1] [nM] | ELISA Assay Ratio b1/b7 [2] | IC50 [2] [nM] | IC50 [3] [nM] |
| --- | --- | --- | --- | --- |
| CC(C)C[C@@H]1NC(=O)c2ccc(-c3ccc(N4CCN(C(=O)c5ncn(C)c5C(=O)N5CCN(c6ccc(-c7ccc8cc7CNC(=O)[C@@H]7CCCN7[C@H](C(=O)NC(C)(C)C)[C@H](C)NC(=O)[C@H]([C@@H](C)O)NC(=O)[C@H](CC(=O)O)NC(=O)[C@H](CC(C)C)NC8=O)cc6)CC5)CC4)cc3)c(c2)CNC(=O)[C@@H]2CCCN2[C@H](C(=O)NC(C)(C)C)[C@H](C)NC(=O)[C@H]([C@@H](C)O)NC(=O)[C@H](CC(=O)O)NC1=O [Compound 476] | 32 | – | – | – |
| CC(C)C[C@@H]1NC(=O)[C@H]2Cc3ccccc3CN2C(=O)[C@H](Cc2cccc(CNC(=O)CCCCCCCC(=O)NCc3cccc(C[C@@H]4NC(=O)[C@@H]5CCCN5[C@H](C(=O)NC(C)(C)C)[C@H](C)NC(=O)[C@H]([C@@H](C)O)NC(=O)[C@H](CC(=O)O)NC(=O)[C@H](CC(C)C)NC(=O)[C@H]5Cc6ccccc6CN5C4=O)c3)c2)NC(=O)[C@@H]2CCCN2[C@H](C(=O)NC(C)(C)C)[C@H](C)NC(=O)[C@H]([C@@H](C)O)NC(=O)[C@H](CC(=O)O)NC1=O [Compound 529] | 47 | – | – | – |
| COc1ccc(C[C@@H]2NC(=O)[C@@H]3CCCN3[C@H](C(=O)NC(C)(C)C)[C@H](C)NC(=O)[C@H]([C@@H](C)O)NC(=O)[C@H](CC(=O)O)NC(=O)[C@H](CC(C)C)NC(=O)[C@H]3CCCN3C2=O)cc1OC [Compound 127] | – | 7.8 | 25 | 196 |
| CC(C)C[C@@H]1NC(=O)C[C@H](CCCCN)NC(=O)CN(Cc2ccccc2)C(=O)[C@@H]2CCCN2[C@H](C(=O)NC(C)(C)C)[C@H](C)NC(=O)[C@H]([C@@H](C)O)NC(=O)[C@H](CC(=O)O)NC1=O [Compound 296] | – | 94.8 | – | 14700 |
| CC(C)C[C@@H]1NC(=O)c2ccc(-c3cccc4ncccc34)c(c2)CNC(=O)[C@@H]2CCCN2[C@H](C(=O)NC(C)(C)C)[C@H](C)NC(=O)[C@H]([C@@H](C)O)NC(=O)[C@H](CC(=O)O)NC1=O [Compound 347] | – | 1.3 | 23 | 30 |
| COc1ccccc1-c1ccccc1C[C@@H]1NC(=O)[C@@H]2CCCN2[C@H](C(=O)NC(C)(C)C)[C@H](C)NC(=O)[C@H]([C@@H](C)O)NC(=O)[C@H](CC(=O)O)NC(=O)[C@H](CC(C)C)NC(=O)[C@H]2CCCCN2C1=O [Compound 135] | – | 4.9 | 24 | 119 |
| CC(C)C[C@@H]1NC(=O)c2cc(cc(-c3ccncc3)c2)CNC(=O)[C@@H]2CCCN2[C@H](C(=O)NC(C)(C)C)[C@H](C)NC(=O)[C@H]([C@@H](C)O)NC(=O)[C@H](CC(=O)O)NC1=O [Compound 362] | – | 5.6 | 43 | 238 |
| CC(C)C[C@@H]1NC(=O)[C@H](Cc2csc(-c3ccccn3)n2)NC(=O)[C@@H]2CCCN2[C@H](C(=O)NC(C)(C)C)[C@H](C)NC(=O)[C@H]([C@@H](C)O)NC(=O)[C@H](CC(=O)O)NC1=O [Compound 95] | – | 2.4 | 125 | 303 |
| CO[C@H](C)[C@@H]1NC(=O)[C@H](CC(=O)O)NC(=O)[C@H](CC(C)C)NC(=O)[C@H](Cc2ccccc2)NC(=O)[C@@H]2CCCN2[C@H](C(=O)NC(C)(C)C)[C@H](C)NC1=O [Compound 40] | – | 1.9 | 63 | 119 |
| CC[C@H](C)[C@@H]1NC(=O)[C@H](CC(=O)O)NC(=O)[C@H](CC(C)C)NC(=O)[C@@H](CCCCN)N(C)C(=O)[C@H](Cc2ccc(O)cc2)NC(=O)[C@@H]2CCCN2[C@H](C(=O)NC(C)(C)C)[C@H](C)NC1=O [Compound 154] | – | 22.8 | 117 | 2660 |
